Blank lines part the entries; values can stand above or below the compound they belong to.
Experiment: Effect of temperature (and pH) on the stability of the solution (purity)
Type: physicochemical

Compound: CCN(CC)CCOC(=O)COC(=O)Cc1c(C)n(C(=O)c2ccc(Cl)cc2)c2ccc(OC)cc12.Cl
Purity(%) at day 0 (7% solution in water, pH 1.0, day 0): 98.1 ± 0.3%
Purity(%) at day 21 (5° C.) (7% solution in water, pH 1.0, day 21, 5° C.): 91.9 ± 0.3%
Purity(%) at day 21 (25° C.) (7% solution in water, pH 1.0, day 21, 25° C.): 67.3 ± 0.3%
Purity(%) at day 21 (40° C.) (7% solution in water, pH 1.0, day 21, 40° C.): 15.6 ± 0.3%
Purity (%) at day 21 (60° C.) (7% solution in water, pH 1.0, day 21, 60° C.): 0%
Purity(%) at day 0 (7% solution in water, pH 2.0, day 0): 98.3 ± 0.3%
Purity(%) at day 21 (5° C.) (7% solution in water, pH 2.0, day 21, 5° C.): 95.7 ± 0.2%
Purity(%) at day 21 (25° C.) (7% solution in water, pH 2.0, day 21, 25° C.): 82.2 ± 0.2%
Purity(%) at day 21 (40° C.) (7% solution in water, pH 2.0, day 21, 40° C.): 26.7 ± 0.3%
Purity (%) at day 21 (60° C.) (7% solution in water, pH 2.0, day 21, 60° C.): 0%
Purity(%) at day 0 (7% solution in water, pH 3.0, day 0): 98.5 ± 0.2%
Purity(%) at day 21 (5° C.) (7% solution in water, pH 3.0, day 21, 5° C.): 98.0 ± 0.2%
Purity(%) at day 21 (25° C.) (7% solution in water, pH 3.0, day 21, 25° C.): 93.0 ± 0.2%
Purity(%) at day 21 (40° C.) (7% solution in water, pH 3.0, day 21, 40° C.): 47.7 ± 0.3%
Purity (%) at day 21 (60° C.) (7% solution in water, pH 3.0, day 21, 60° C.): 0%
Purity(%) at day 0 (7% solution in water, pH 3.7, day 0): 98.7 ± 0.1%
Purity(%) at day 21 (5° C.) (7% solution in water, pH 3.7, day 21, 5° C.): 98.2 ± 0.1%
Purity(%) at day 21 (25° C.) (7% solution in water, pH 3.7, day 21, 25° C.): 97.1 ± 0.1%
Purity(%) at day 21 (40° C.) (7% solution in water, pH 3.7, day 21, 40° C.): 57.6 ± 0.2%
Purity (%) at day 21 (60° C.) (7% solution in water, pH 3.7, day 21, 60° C.): 13.9 ± 0.3%
Purity(%) at day 0 (7% solution in water, pH 4.0, day 0): 98.7 ± 0.1%
Purity(%) at day 21 (5° C.) (7% solution in water, pH 4.0, day 21, 5° C.): 98.4 ± 0.1%
Purity(%) at day 21 (25° C.) (7% solution in water, pH 4.0, day 21, 25° C.): 97.4 ± 0.2%
Purity(%) at day 21 (40° C.) (7% solution in water, pH 4.0, day 21, 40° C.): 68.7 ± 0.3%
Purity (%) at day 21 (60° C.) (7% solution in water, pH 4.0, day 21, 60° C.): 19.2 ± 0.3%
Purity(%) at day 0 (7% solution in water, pH 4.3, day 0): 98.8 ± 0.2%
Purity(%) at day 21 (5° C.) (7% solution in water, pH 4.3, day 21, 5° C.): 98.5 ± 0.1%
Purity(%) at day 21 (25° C.) (7% solution in water, pH 4.3, day 21, 25° C.): 97.5 ± 0.1%
Purity(%) at day 21 (40° C.) (7% solution in water, pH 4.3, day 21, 40° C.): 68.6 ± 0.3%
Purity (%) at day 21 (60° C.) (7% solution in water, pH 4.3, day 21, 60° C.): 17.9 ± 0.2%
Purity(%) at day 0 (7% solution in water, pH 4.6, day 0): 98.8 ± 0.2%
Purity(%) at day 21 (5° C.) (7% solution in water, pH 4.6, day 21, 5° C.): 98.4 ± 0.2%
Purity(%) at day 21 (25° C.) (7% solution in water, pH 4.6, day 21, 25° C.): 96.5 ± 0.2%
Purity(%) at day 21 (40° C.) (7% solution in water, pH 4.6, day 21, 40° C.): 53.7 ± 0.2%
Purity (%) at day 21 (60° C.) (7% solution in water, pH 4.6, day 21, 60° C.): 14.8 ± 0.3%
Purity(%) at day 0 (7% solution in water, pH 5.0, day 0): 98.6 ± 0.2%
Purity(%) at day 21 (5° C.) (7% solution in water, pH 5.0, day 21, 5° C.): 97.1 ± 0.2%
Purity(%) at day 21 (25° C.) (7% solution in water, pH 5.0, day 21, 25° C.): 93.8 ± 0.2%
Purity(%) at day 21 (40° C.) (7% solution in water, pH 5.0, day 21, 40° C.): 39.8 ± 0.3%
Purity (%) at day 21 (60° C.) (7% solution in water, pH 5.0, day 21, 60° C.): 3.2 ± 0.2%
Purity(%) at day 0 (7% solution in water, pH 6.0, day 0): 98.4 ± 0.2%
Purity(%) at day 21 (5° C.) (7% solution in water, pH 6.0, day 21, 5° C.): 95.8 ± 0.2%
Purity(%) at day 21 (25° C.) (7% solution in water, pH 6.0, day 21, 25° C.): 86.9 ± 0.2%
Purity(%) at day 21 (40° C.) (7% solution in water, pH 6.0, day 21, 40° C.): 28.8 ± 0.2%
Purity (%) at day 21 (60° C.) (7% solution in water, pH 6.0, day 21, 60° C.): 0%
Purity(%) at day 0 (7% solution in water, pH 7.0, day 0): 98.1 ± 0.2%
Purity(%) at day 21 (5° C.) (7% solution in water, pH 7.0, day 21, 5° C.): 90.2 ± 0.3%
Purity(%) at day 21 (25° C.) (7% solution in water, pH 7.0, day 21, 25° C.): 59.7 ± 0.3%
Purity(%) at day 21 (40° C.) (7% solution in water, pH 7.0, day 21, 40° C.): 11.2 ± 0.4%
Purity (%) at day 21 (60° C.) (7% solution in water, pH 7.0, day 21, 60° C.): 0%
Purity(%) at day 0 (7% solution in water, pH 8.0, day 0): 97.7 ± 0.3%
Purity(%) at day 21 (5° C.) (7% solution in water, pH 8.0, day 21, 5° C.): 78.5 ± 0.2%
Purity(%) at day 21 (25° C.) (7% solution in water, pH 8.0, day 21, 25° C.): 47.9 ± 0.3%
Purity(%) at day 21 (40° C.) (7% solution in water, pH 8.0, day 21, 40° C.): 0%
Purity (%) at day 21 (60° C.) (7% solution in water, pH 8.0, day 21, 60° C.): 0%

Purity (%) at day 21 (60° C.) (pH 1.0, 7% solution in water): 0%
Purity(%) at day 0 (pH 1.0, 7% solution in water): 97.9 ± 0.3%
Purity(%) at day 21 (5° C.) (pH 1.0, 7% solution in water): 91.3 ± 0.3%
Purity(%) at day 21 (25° C.) (pH 1.0, 7% solution in water): 67.3 ± 0.3%
Purity(%) at day 21 (40° C.) (pH 1.0, 7% solution in water): 15.1 ± 0.3%
Purity (%) at day 21 (60° C.) (pH 2.0, 7% solution in water): 0%
Purity(%) at day 0 (pH 2.0, 7% solution in water): 98.0 ± 0.2%
Purity(%) at day 21 (5° C.) (pH 2.0, 7% solution in water): 95.1 ± 0.3%
Purity(%) at day 21 (25° C.) (pH 2.0, 7% solution in water): 82.1 ± 0.3%
Purity(%) at day 21 (40° C.) (pH 2.0, 7% solution in water): 27.0 ± 0.3%
Purity (%) at day 21 (60° C.) (pH 3.0, 7% solution in water): 0%
Purity(%) at day 0 (pH 3.0, 7% solution in water): 98.3 ± 0.2%
Purity(%) at day 21 (5° C.) (pH 3.0, 7% solution in water): 97.0 ± 0.2%
Purity(%) at day 21 (25° C.) (pH 3.0, 7% solution in water): 93.5 ± 0.2%
Purity(%) at day 21 (40° C.) (pH 3.0, 7% solution in water): 48.3 ± 0.3%
Purity (%) at day 21 (60° C.) (pH 3.7, 7% solution in water): 13.3 ± 0.5%
Purity(%) at day 0 (pH 3.7, 7% solution in water): 98.4 ± 0.1%
Purity(%) at day 21 (5° C.) (pH 3.7, 7% solution in water): 97.6 ± 0.2%
Purity(%) at day 21 (25° C.) (pH 3.7, 7% solution in water): 96.9 ± 0.3%
Purity(%) at day 21 (40° C.) (pH 3.7, 7% solution in water): 57.2 ± 0.2%
Purity (%) at day 21 (60° C.) (pH 4.0, 7% solution in water): 18.2 ± 0.3%
Purity(%) at day 0 (pH 4.0, 7% solution in water): 98.5 ± 0.1%
Purity(%) at day 21 (5° C.) (pH 4.0, 7% solution in water): 98.0 ± 0.1%
Purity(%) at day 21 (25° C.) (pH 4.0, 7% solution in water): 97.0 ± 0.2%
Purity(%) at day 21 (40° C.) (pH 4.0, 7% solution in water): 68.1 ± 0.3%
Purity (%) at day 21 (60° C.) (pH 4.3, 7% solution in water): 17.2 ± 0.2%
Purity(%) at day 0 (pH 4.3, 7% solution in water): 98.5 ± 0.2%
Purity(%) at day 21 (5° C.) (pH 4.3, 7% solution in water): 98.0 ± 0.1%
Purity(%) at day 21 (25° C.) (pH 4.3, 7% solution in water): 97.0 ± 0.3%
Purity(%) at day 21 (40° C.) (pH 4.3, 7% solution in water): 68.1 ± 0.3%
Purity (%) at day 21 (60° C.) (pH 4.6, 7% solution in water): 14.3 ± 0.3%
Purity(%) at day 0 (pH 4.6, 7% solution in water): 98.6 ± 0.1%
Purity(%) at day 21 (5° C.) (pH 4.6, 7% solution in water): 98.1 ± 0.2%
Purity(%) at day 21 (25° C.) (pH 4.6, 7% solution in water): 96.1 ± 0.2%
Purity(%) at day 21 (40° C.) (pH 4.6, 7% solution in water): 54.5 ± 0.2%
Purity (%) at day 21 (60° C.) (pH 5.0, 7% solution in water): 1.2 ± 0.2%
Purity(%) at day 0 (pH 5.0, 7% solution in water): 98.4 ± 0.2%
Purity(%) at day 21 (5° C.) (pH 5.0, 7% solution in water): 96.9 ± 0.2%
Purity(%) at day 21 (25° C.) (pH 5.0, 7% solution in water): 93.1 ± 0.3%
Purity(%) at day 21 (40° C.) (pH 5.0, 7% solution in water): 40.8 ± 0.3%
Purity (%) at day 21 (60° C.) (pH 6.0, 7% solution in water): 0%
Purity(%) at day 0 (pH 6.0, 7% solution in water): 98.2 ± 0.2%
Purity(%) at day 21 (5° C.) (pH 6.0, 7% solution in water): 95.0 ± 0.2%
Purity(%) at day 21 (25° C.) (pH 6.0, 7% solution in water): 86.7 ± 0.2%
Purity(%) at day 21 (40° C.) (pH 6.0, 7% solution in water): 27.8 ± 0.2%
Purity (%) at day 21 (60° C.) (pH 7.0, 7% solution in water): 0%
Purity(%) at day 0 (pH 7.0, 7% solution in water): 98.0 ± 0.3%
Purity(%) at day 21 (5° C.) (pH 7.0, 7% solution in water): 90.0 ± 0.3%
Purity(%) at day 21 (25° C.) (pH 7.0, 7% solution in water): 59.3 ± 0.3%
Purity(%) at day 21 (40° C.) (pH 7.0, 7% solution in water): 11.0 ± 0.4%
Purity (%) at day 21 (60° C.) (pH 8.0, 7% solution in water): 0%
Purity(%) at day 0 (pH 8.0, 7% solution in water): 97.8 ± 0.3%
Purity(%) at day 21 (5° C.) (pH 8.0, 7% solution in water): 78.3 ± 0.3%
Purity(%) at day 21 (25° C.) (pH 8.0, 7% solution in water): 47.1 ± 0.3%
Purity(%) at day 21 (40° C.) (pH 8.0, 7% solution in water): 0%
Compound: CCN(CC)CCOC(=O)Cc1ccccc1Oc1ccc(Cl)cc1Cl.Cl
